Data published in US20230041563A1, “N-(1,3,4-OXADIAZOL-2-YL)ARYLCARBOXAMIDES OR SALTS THEREOF, PREPARATION METHODS, HERBICIDAL COMPOSITIONS AND USES THEREOF” (priority 2018, published 2023).

Key:
Digitaria sanguinalis = test: Weeding effect in post-emergence stage (greenhouse pot spray); type: in vivo
In short: (§1)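 Fresh-weight control rate was assessed 3 weeks after post-emergence spray-tower application at doses of 500–15 g a.i./ha, triplicate. Weeds were treated at the 2–3 leaf stage, 2 weeks post-sowing, using acetone solutions with Tween 80 plus 1.5 L/ha methyl oleate emulsifiable concentrate.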

Echinochloa crusgalli = test: as above; type: in vivo
In short: as §1

Setaria viridis = test: as above; type: in vivo
In short: as §1

Echinochloa crusgali = test: Transplanted rice safety evaluation and weed control effect evaluation in rice field; type: in vivo
Source text: (§2) Transplanted rice safety evaluation and weed control effect evaluation in rice field:
(§3) Rice field soil was loaded into a 1/1,000,000 ha pot. The seeds of echinochloa crusgali, scirpus juncoides, Bidens tripartita, Sagittaria trifolia, Monochoria vaginalis and Leptochloa chinensis were sowed and gently covered with soil, then left to stand still in greenhouse in the state of 0.5-1 cm of water storage. The tuber of Sagittaria trifolia was planted in the next day or 2 days later. It was kept at 3-4 cm of water storage thereafter. The weeds were treated by dripping the WP or SC water diluents prepared according to the common preparation method of the compounds of the present invention with pipette homogeneously to achieve specified effective amount when echinochloa crusgali, scirpus juncoides, Bidens tripartita, Monochoria vaginalis and Leptochloa chinensis reached 0.5 leaf stage and Sagittaria trifolia reached the time point of primary leaf stage.
(§4) The fertility condition of echinochloa crusgali, scirpus juncoides, Bidens tripartita, Leptochloa chinensis, Sagittaria trifolia and Monochoria vaginalis 14 days after the treatment of the compound of the invention and the fertility condition of rice 21 days after the treatment of the compound of the invention respectively with the naked eye. Evaluate the weed control effect with 0-5 activity standard level. Many compounds show excellent activity and selectivity.

Leptochloa chinensis = test: as above; type: in vivo
Source text: as §2, §3, §4

Monochoria vaginalis = test: as above; type: in vivo
Source text: as §2, §3, §4

Sagittaria trifolia = test: as above; type: in vivo
Source text: as §2, §3, §4

Rice = test: as above; type: in vivo, rice (japonica rice/Indica rice); details: Table 8, dose 60 g a.i./ha
Protocol: as §2
In addition, the rice field soil that loaded into the 1/1,000,000 ha pot was leveled to keep water storage at 3-4 cm depth. The 3 leaf stage rice (japonica rice/Indica rice) was transplanted at 3 cm of transplanting depth the next day. The compound of the present invention was treated by the same way after 5 days of transplantation.
as §4

weeds = test: Actual control effects and combined effects of mixtures of active ingredients (i) and (ii), stem-leaf treatment, Gowing method; type: in vivo; details: Cyperus difformis, 20 days

Row | SMILES | Digitaria sanguinahs (activity level) (Digitaria sanguinalis; Table 3, dose 60 g a.i./ha) | Echinochloa crusgali (activity level) (Echinochloa crusgalli; Table 3, dose 60 g a.i./ha) | Setaria viridis (activity level) (Setaria viridis; Table 3, dose 60 g a.i./ha) | Echinochloa crusgali (activity level) (Echinochloa crusgali; Table 8, dose 60 g a.i./ha) | Leptochloa chinensis (activity level) (Leptochloa chinensis; Table 8, dose 60 g a.i./ha) | Monochoria vaginalis (activity level) (Monochoria vaginalis; Table 8, dose 60 g a.i./ha) | Sagittaria trifolia (activity level) (Sagittaria trifolia; Table 8, dose 60 g a.i./ha) | Rice (safety level) (Rice) | other results
1 | CCCC[S@+]([O-])c1c(C(F)(F)F)ccc(C(=O)Nc2nnc(C)o2)c1F [1-14 (R-configuration)] | 5 (Level 5: growth control rate is above 85%) | 5 (Level 5: growth control rate is above 85%) | 5 (Level 5: growth control rate is above 85%) | 5 (Level 5: growth control rate is above 85%) | 5 (Level 5: growth control rate is above 85%) | 5 (Level 5: growth control rate is above 85%) | 5 (Level 5: growth control rate is above 85%) | 0 (Level 0: growth control rate is less than 5%) | Digitaria sanguinahs (activity level) (Digitaria sanguinalis; Table 3, dose 7.5 g a.i./ha): 4 (Level 4: growth control rate is greater than or equal to 60% and less than 85%); Digitaria sanguinahs (activity level) (Digitaria sanguinalis; Table 3, dose 15 g a.i./ha): 5 (Level 5: growth control rate is above 85%); Digitaria sanguinahs (activity level) (Digitaria sanguinalis; Table 3, dose 30 g a.i./ha): 5 (Level 5: growth control rate is above 85%); Echinochloa crusgali (activity level) (Echinochloa crusgalli; Table 3, dose 7.5 g a.i./ha): 5 (Level 5: growth control rate is above 85%); Echinochloa crusgali (activity level) (Echinochloa crusgalli; Table 3, dose 15 g a.i./ha): 5 (Level 5: growth control rate is above 85%); Echinochloa crusgali (activity level) (Echinochloa crusgalli; Table 3, dose 30 g a.i./ha): 5 (Level 5: growth control rate is above 85%); Setaria viridis (activity level) (Setaria viridis; Table 3, dose 7.5 g a.i./ha): 4 (Level 4: growth control rate is greater than or equal to 60% and less than 85%); Setaria viridis (activity level) (Setaria viridis; Table 3, dose 15 g a.i./ha): 4 (Level 4: growth control rate is greater than or equal to 60% and less than 85%); Setaria viridis (activity level) (Setaria viridis; Table 3, dose 30 g a.i./ha): 5 (Level 5: growth control rate is above 85%)
2 | Cc1nnc(NC(=O)c2ccc(C(F)(F)F)c([S@@+]([O-])CC(C)C)c2F)o1 [1-20 (R-configuration)] | – | – | – | 5 (Level 5: growth control rate is above 85%) | 5 (Level 5: growth control rate is above 85%) | 5 (Level 5: growth control rate is above 85%) | 5 (Level 5: growth control rate is above 85%) | 0 (Level 0: growth control rate is less than 5%) | –
3 | Cc1nnc(NC(=O)c2ccc(C(F)(F)F)c([S@@+]([O-])C3COC3)c2F)o1 [1-82 (R-configuration)] | – | – | – | 5 (Level 5: growth control rate is above 85%) | 5 (Level 5: growth control rate is above 85%) | 5 (Level 5: growth control rate is above 85%) | 5 (Level 5: growth control rate is above 85%) | 0 (Level 0: growth control rate is less than 5%) | Digitaria sanguinahs (activity level) (Digitaria sanguinalis; Table 3, dose 125 g a.i./ha): 5 (Level 5: growth control rate is above 85%); Echinochloa crusgali (activity level) (Echinochloa crusgalli; Table 3, dose 125 g a.i./ha): 5 (Level 5: growth control rate is above 85%); Setaria viridis (activity level) (Setaria viridis; Table 3, dose 125 g a.i./ha): 5 (Level 5: growth control rate is above 85%)
4 | Cc1nnc(NC(=O)c2ccc(C(F)(F)F)c([S@@+]([O-])CCCF)c2F)o1 [1-403 (R-configuration)] | 5 (Level 5: growth control rate is above 85%) | 5 (Level 5: growth control rate is above 85%) | 5 (Level 5: growth control rate is above 85%) | 5 (Level 5: growth control rate is above 85%) | 5 (Level 5: growth control rate is above 85%) | 5 (Level 5: growth control rate is above 85%) | 5 (Level 5: growth control rate is above 85%) | 0 (Level 0: growth control rate is less than 5%) | –
5 | Cc1nnc(NC(=O)c2ccc(C(F)(F)F)c([S@+]([O-])CCCCl)c2F)o1 [1-414 (R-configuration)] | – | – | – | 5 (Level 5: growth control rate is above 85%) | 5 (Level 5: growth control rate is above 85%) | 5 (Level 5: growth control rate is above 85%) | 5 (Level 5: growth control rate is above 85%) | 0 (Level 0: growth control rate is less than 5%) | Digitaria sanguinahs (activity level) (Digitaria sanguinalis; Table 3, dose 500 g a.i./ha): 5 (Level 5: growth control rate is above 85%); Echinochloa crusgali (activity level) (Echinochloa crusgalli; Table 3, dose 500 g a.i./ha): 5 (Level 5: growth control rate is above 85%); Setaria viridis (activity level) (Setaria viridis; Table 3, dose 500 g a.i./ha): 5 (Level 5: growth control rate is above 85%)
6 | COc1cnc(OC)n2nc(NS(=O)(=O)c3c(OCC(F)F)cccc3C(F)(F)F)nc12 [Penoxsulam, reference compound] | – | – | – | – | – | – | – | – | Echinochloa crusgali (activity level) (Echinochloa crusgali; Table 8, 30 g a.i./ha): 0 (Level 0: growth control rate is less than 5%); Leptochloa chinensis (activity level) (Leptochloa chinensis; Table 8, 30 g a.i./ha): 1 (Level 1: growth control rate is greater than or equal to 5% and less than 20%); Monochoria vaginalis (activity level) (Monochoria vaginalis; Table 8, 30 g a.i./ha): 1 (Level 1: growth control rate is greater than or equal to 5% and less than 20%); Sagittaria trifolia (activity level) (Sagittaria trifolia; Table 8, 30 g a.i./ha): 0 (Level 0: growth control rate is less than 5%); pest or weed control at 15 g/ha (weeds; 480 h, (ii) 1 g a.i./mu, stem-leaf treatment, read-out: Control effect of (ii) alone at corresponding dose): 66.4%; pest or weed control at 27 g/ha (weeds; 480 h, (ii) 1.8 g a.i./mu, read-out: Control effect of (ii) alone at corresponding dose): 80.2%; Control effect of (ii) alone at corresponding dose (weeds; (ii) 1 g a.i./mu): 66.4%
